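Test compounds were applied to cells in 96-well plates for 48 hours at 5 doses. TGI: concentration producing complete growth inhibition.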
Assays:
Test in all cases: NCI-60 cell line screen, 48 h
[1] = tested on: U251 CNS
[2] = tested on: M14 melanoma
[3] = tested on: COLO 205 colon
[4] = tested on: XF 498 CNS
[5] = tested on: MCF7 breast
[6] = tested on: SN12C renal
[7] = tested on: IGROV1 ovarian
[8] = tested on: HCC-2998 colon
[9] = tested on: DU-145 prostate
[10] = tested on: SW-620 colon
[11] = tested on: SK-MEL-28 melanoma
[12] = tested on: DMS 273 small cell lung
[13] = tested on: MDA-MB-435
[14] = tested on: NCI-H226 lung
[15] = tested on: HL-60(TB) leukemia
[16] = tested on: SF-539 CNS
[17] = tested on: A498 renal
[18] = tested on: EKVX NSCLC
[19] = tested on: OVCAR-4 ovarian
[20] = tested on: SF-295 CNS
[21] = tested on: SR leukemia
[22] = tested on: SK-OV-3 ovarian
[23] = tested on: ACHN renal
[24] = tested on: OVCAR-5 ovarian
[25] = tested on: HT29 colon
[26] = tested on: OVCAR-3 ovarian
[27] = tested on: RXF-631 renal
[28] = tested on: MOLT-4 leukemia
[29] = tested on: HOP-92 NSCLC
[30] = tested on: M19-MEL melanoma
[31] = tested on: DLD-1 colon
[32] = tested on: LXFL 529 NSCLC
[33] = tested on: UACC-62 melanoma
[34] = tested on: SK-MEL-2 melanoma
[35] = tested on: KM12 colon
[36] = tested on: KM20L2 colon
[37] = tested on: T-47D breast
[38] = tested on: RPMI-8226 leukemia
[39] = tested on: NCI-H460 lung
[40] = tested on: TK-10 renal
[41] = tested on: HOP-18 NSCLC
[42] = tested on: UACC-257 melanoma
[43] = tested on: K-562 leukemia
[44] = tested on: SNB-75 CNS
[45] = tested on: HS 578T breast
[46] = tested on: PC-3 prostate
[47] = tested on: CCRF-CEM leukemia
[48] = tested on: SNB-78 CNS
[49] = tested on: SF-268 CNS
[50] = tested on: SK-MEL-5 melanoma
[51] = tested on: HCT-116 colon
[52] = tested on: HCT-15 colon
[53] = tested on: A549 NSCLC
[54] = tested on: OVCAR-8 ovarian
[55] = tested on: 786-0 renal
[56] = tested on: CAKI-1 renal
[57] = tested on: MDA-N
[58] = tested on: NCI/ADR-RES ovarian
[59] = tested on: MDA-MB-231 breast
[60] = tested on: NCI-H23 lung
[61] = tested on: DMS 114 small cell lung
[62] = tested on: SNB-19 CNS
[63] = tested on: MALME-3M melanoma
[64] = tested on: BT-549 breast
[65] = tested on: HOP-62 NSCLC
[66] = tested on: RXF 393 renal
[67] = tested on: UO-31 renal
[68] = tested on: NCI-H522 lung
[69] = tested on: LOX IMVI melanoma

Compound: CCOC(=O)CN1C(=O)c2cc([N+](=O)[O-])cc3cc([N+](=O)[O-])cc(c23)C1=O
- TGI [1]: > 100 µM
- TGI [2]: > 100 µM
- TGI [3]: > 100 µM
- TGI [4]: > 100 µM
- TGI [5]: > 100 µM
- TGI [6]: > 100 µM
- TGI [7]: > 100 µM
- TGI [8]: > 100 µM
- TGI [9]: > 100 µM
- TGI [10]: > 100 µM
- TGI [11]: > 100 µM
- TGI [12]: > 100 µM
- TGI [13]: > 100 µM
- TGI [14]: > 100 µM
- TGI [15]: 8.99 µM
- TGI [16]: 84.3 µM
- TGI [17]: > 100 µM
- TGI [18]: > 100 µM
- TGI [19]: > 100 µM
- TGI [20]: > 100 µM
- TGI [21]: 30.7 µM
- TGI [22]: > 100 µM
- TGI [23]: > 100 µM
- TGI [24]: > 100 µM
- TGI [25]: > 100 µM
- TGI [26]: > 100 µM
- TGI [27]: > 100 µM
- TGI [28]: > 64.9 µM
- TGI [29]: > 100 µM
- TGI [30]: > 100 µM
- TGI [31]: > 100 µM
- TGI [32]: > 100 µM
- TGI [33]: > 100 µM
- TGI [34]: > 62.3 µM
- TGI [35]: > 100 µM
- TGI [36]: > 100 µM
- TGI [37]: > 100 µM
- TGI [38]: > 100 µM
- TGI [39]: > 100 µM
- TGI [40]: > 100 µM
- TGI [41]: > 100 µM
- TGI [42]: > 100 µM
- TGI [43]: > 100 µM
- TGI [44]: > 100 µM
- TGI [45]: > 100 µM
- TGI [46]: > 100 µM
- TGI [47]: 23.2 µM
- TGI [48]: > 97.1 µM
- TGI [49]: > 94.6 µM
- TGI [50]: > 100 µM
- TGI [51]: > 100 µM
- TGI [52]: > 100 µM
- TGI [53]: > 100 µM
- TGI [54]: > 100 µM
- TGI [55]: > 100 µM
- TGI [56]: > 100 µM
- TGI [57]: > 100 µM
- TGI [58]: > 100 µM
- TGI [59]: > 100 µM
- TGI [60]: > 100 µM
- TGI [61]: > 100 µM
- TGI [62]: > 100 µM
- TGI [63]: > 100 µM
- TGI [64]: > 100 µM
- TGI [65]: > 100 µM
- TGI [66]: 83 µM
- TGI [67]: > 100 µM
- TGI [68]: 46.3 µM
- TGI [69]: > 100 µM

Compound: COc1ccc([C@@H]2OC(=O)C3C2C(=O)O[C@H]3c2ccc(OC)c(OC)c2)cc1OC (stereo partly drawn)
- TGI [1]: > 100 µM
- TGI [2]: > 100 µM
- TGI [3]: > 100 µM
- TGI [4]: > 100 µM
- TGI [6]: > 100 µM
- TGI [7]: > 100 µM
- TGI [8]: > 100 µM
- TGI [10]: > 100 µM
- TGI [11]: > 100 µM
- TGI [12]: > 100 µM
- TGI [14]: > 100 µM
- TGI [15]: > 100 µM
- TGI [16]: > 100 µM
- TGI [17]: > 100 µM
- TGI [18]: > 100 µM
- TGI [19]: > 100 µM
- TGI [20]: > 100 µM
- TGI [22]: > 100 µM
- TGI [23]: > 100 µM
- TGI [25]: > 100 µM
- TGI [26]: > 100 µM
- TGI [27]: > 100 µM
- TGI [28]: > 100 µM
- TGI [29]: > 100 µM
- TGI [30]: > 100 µM
- TGI [33]: > 100 µM
- TGI [34]: > 100 µM
- TGI [35]: > 100 µM
- TGI [36]: > 100 µM
- TGI [38]: > 100 µM
- TGI [39]: > 100 µM
- TGI [40]: > 100 µM
- TGI [41]: > 100 µM
- TGI [42]: > 100 µM
- TGI [43]: > 100 µM
- TGI [44]: > 100 µM
- TGI [47]: > 100 µM
- TGI [48]: > 100 µM
- TGI [49]: > 100 µM
- TGI [50]: > 100 µM
- TGI [51]: > 100 µM
- TGI [52]: > 100 µM
- TGI [53]: > 100 µM
- TGI [54]: > 100 µM
- TGI [55]: > 100 µM
- TGI [60]: > 100 µM
- TGI [61]: > 100 µM
- TGI [62]: > 100 µM
- TGI [63]: > 100 µM
- TGI [65]: > 100 µM
- TGI [66]: > 100 µM
- TGI [67]: > 100 µM
- TGI [68]: > 100 µM
- TGI [69]: > 100 µM
